From ChEMBL document CHEMBL1201862, “PubChem BioAssay data set” (2004)
Active and inactive are the calls of the source.

Tests used:
[1] = target: Phospholipase D2 (Homo sapiens, UniProt O14939); assay: PLD2 inhibitor potency in cells, dose response (AID 602147); format: functional;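 also: cellular assay in HEK293 cells overexpressing GFP-tagged PLD2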
[2] = target: Phospholipase D1 (Homo sapiens, UniProt Q13393); assay: PLD1 inhibitor potency in cells, dose response (AID 602151); format: functional;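 also: cellular PLD1 assay in Calu-1 cells stimulated with PMA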
[3] = HEK293T cytotoxicity, dose response, cytotoxicity control for miR-122 modulator project, cell-based, activator set, cherry-pick (AID 720690); format: functional;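 also: HEK293T human cells scored for general mammalian cytotoxicity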
[4] = target: T1, High affinity choline transporter 1 (Homo sapiens, UniProt Q9GZV3); assay: CHT activators, dose response, cell-based, 10-point CRC, membrane potential dye (AID 602376); format: functional
T1 sequence (Q9GZV3 whole entry): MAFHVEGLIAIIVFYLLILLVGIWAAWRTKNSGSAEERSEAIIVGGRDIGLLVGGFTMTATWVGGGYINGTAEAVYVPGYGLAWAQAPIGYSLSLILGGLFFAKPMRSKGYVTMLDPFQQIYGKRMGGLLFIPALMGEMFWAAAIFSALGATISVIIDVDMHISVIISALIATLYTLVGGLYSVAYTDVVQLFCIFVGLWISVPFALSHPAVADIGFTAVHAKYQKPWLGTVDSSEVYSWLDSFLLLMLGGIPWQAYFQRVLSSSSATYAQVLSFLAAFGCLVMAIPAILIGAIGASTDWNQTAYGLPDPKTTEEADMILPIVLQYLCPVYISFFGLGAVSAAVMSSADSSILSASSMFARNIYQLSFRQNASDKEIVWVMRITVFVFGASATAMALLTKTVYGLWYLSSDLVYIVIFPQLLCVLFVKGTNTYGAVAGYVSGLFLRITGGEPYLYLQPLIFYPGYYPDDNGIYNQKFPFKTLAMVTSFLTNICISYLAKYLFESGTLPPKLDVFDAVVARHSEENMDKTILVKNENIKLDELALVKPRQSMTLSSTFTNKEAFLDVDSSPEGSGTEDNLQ

[5] = target: Mu-type opioid receptor (Homo sapiens, UniProt P35372); assay: Counterscreen for agonists of heterodimerization of the mu 1 (OPRM1) and delta 1 (OPRD1) opioid receptors: Luminescence-based cell-based high throughput dose response assay to identify agonists of OPRM1 homodimerization.; format: functional;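 also: U2OS cells expressing OPRM1 and beta-arrestin as split beta-galactosidase partners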
Mu-type opioid receptor, sequence (P35372 whole entry): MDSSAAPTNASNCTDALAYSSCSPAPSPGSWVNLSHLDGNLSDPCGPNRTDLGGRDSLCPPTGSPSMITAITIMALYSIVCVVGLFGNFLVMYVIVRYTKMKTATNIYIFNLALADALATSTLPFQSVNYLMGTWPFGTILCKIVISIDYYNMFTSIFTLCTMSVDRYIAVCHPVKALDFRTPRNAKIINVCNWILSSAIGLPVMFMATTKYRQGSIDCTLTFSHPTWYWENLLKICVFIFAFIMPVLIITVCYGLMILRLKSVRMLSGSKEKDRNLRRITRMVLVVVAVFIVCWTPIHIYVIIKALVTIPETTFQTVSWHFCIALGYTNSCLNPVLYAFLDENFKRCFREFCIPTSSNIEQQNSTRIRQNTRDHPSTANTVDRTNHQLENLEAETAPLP

[6] = target: Delta-type opioid receptor (Homo sapiens, UniProt P41143); assay: Counterscreen for agonists of heterodimerization of the mu 1 (OPRM1) and delta 1 (OPRD1) opioid receptors: Luminescence-based cell-based high throughput dose response assay to identify agonists of OPRD1 homodimerization. [Related pubchem assays (depositor defined):AID504326, AID504355, AID504692, AID504904, AID504905]; format: functional
Delta-type opioid receptor, sequence (P41143 whole entry): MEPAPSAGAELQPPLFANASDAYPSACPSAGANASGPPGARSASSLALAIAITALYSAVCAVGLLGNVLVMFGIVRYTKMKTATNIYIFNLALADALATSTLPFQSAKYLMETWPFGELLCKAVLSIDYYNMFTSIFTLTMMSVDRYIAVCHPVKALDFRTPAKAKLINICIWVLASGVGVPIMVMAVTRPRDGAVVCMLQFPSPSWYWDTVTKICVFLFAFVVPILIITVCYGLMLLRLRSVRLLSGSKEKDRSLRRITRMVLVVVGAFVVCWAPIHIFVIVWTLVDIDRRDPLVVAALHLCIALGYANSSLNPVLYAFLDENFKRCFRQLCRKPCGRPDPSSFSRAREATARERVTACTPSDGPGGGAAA

[7] = target: 5-hydroxytryptamine receptor 5A (Homo sapiens, UniProt P47898); assay: Counterscreen for agonists of OPRM1-OPRD1 heterodimerization: luminescence-based cell-based high throughput dose response assay to identify agonists of 5-hydroxytryptamine (serotonin) 5A receptor (HTR5A). [Related pubchem assays (depositor defined):AID504326, AID504355, AID504692, AID504904, AID504905]; format: functional
5-hydroxytryptamine receptor 5A, sequence (P47898 whole entry): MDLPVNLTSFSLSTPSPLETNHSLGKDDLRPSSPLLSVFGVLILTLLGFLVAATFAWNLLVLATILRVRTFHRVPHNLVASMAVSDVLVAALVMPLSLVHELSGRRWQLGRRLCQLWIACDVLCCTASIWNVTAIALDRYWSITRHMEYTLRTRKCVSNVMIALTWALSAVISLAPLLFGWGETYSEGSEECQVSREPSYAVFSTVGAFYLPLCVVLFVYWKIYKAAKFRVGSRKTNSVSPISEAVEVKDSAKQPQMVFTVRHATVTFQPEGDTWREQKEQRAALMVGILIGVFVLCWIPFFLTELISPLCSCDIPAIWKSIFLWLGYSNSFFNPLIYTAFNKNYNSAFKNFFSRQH

[8] = target: Mast/stem cell growth factor receptor Kit (Homo sapiens, UniProt P10721); format: functional;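 also: KIT entry within a kinase panel assay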
[9] = target: Vascular endothelial growth factor receptor 3 (Homo sapiens, UniProt P35916); format: functional;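 also: value from a kinome-wide profiling panel, with FLT4 as the panel member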
Vascular endothelial growth factor receptor 3, sequence (P35916 whole entry): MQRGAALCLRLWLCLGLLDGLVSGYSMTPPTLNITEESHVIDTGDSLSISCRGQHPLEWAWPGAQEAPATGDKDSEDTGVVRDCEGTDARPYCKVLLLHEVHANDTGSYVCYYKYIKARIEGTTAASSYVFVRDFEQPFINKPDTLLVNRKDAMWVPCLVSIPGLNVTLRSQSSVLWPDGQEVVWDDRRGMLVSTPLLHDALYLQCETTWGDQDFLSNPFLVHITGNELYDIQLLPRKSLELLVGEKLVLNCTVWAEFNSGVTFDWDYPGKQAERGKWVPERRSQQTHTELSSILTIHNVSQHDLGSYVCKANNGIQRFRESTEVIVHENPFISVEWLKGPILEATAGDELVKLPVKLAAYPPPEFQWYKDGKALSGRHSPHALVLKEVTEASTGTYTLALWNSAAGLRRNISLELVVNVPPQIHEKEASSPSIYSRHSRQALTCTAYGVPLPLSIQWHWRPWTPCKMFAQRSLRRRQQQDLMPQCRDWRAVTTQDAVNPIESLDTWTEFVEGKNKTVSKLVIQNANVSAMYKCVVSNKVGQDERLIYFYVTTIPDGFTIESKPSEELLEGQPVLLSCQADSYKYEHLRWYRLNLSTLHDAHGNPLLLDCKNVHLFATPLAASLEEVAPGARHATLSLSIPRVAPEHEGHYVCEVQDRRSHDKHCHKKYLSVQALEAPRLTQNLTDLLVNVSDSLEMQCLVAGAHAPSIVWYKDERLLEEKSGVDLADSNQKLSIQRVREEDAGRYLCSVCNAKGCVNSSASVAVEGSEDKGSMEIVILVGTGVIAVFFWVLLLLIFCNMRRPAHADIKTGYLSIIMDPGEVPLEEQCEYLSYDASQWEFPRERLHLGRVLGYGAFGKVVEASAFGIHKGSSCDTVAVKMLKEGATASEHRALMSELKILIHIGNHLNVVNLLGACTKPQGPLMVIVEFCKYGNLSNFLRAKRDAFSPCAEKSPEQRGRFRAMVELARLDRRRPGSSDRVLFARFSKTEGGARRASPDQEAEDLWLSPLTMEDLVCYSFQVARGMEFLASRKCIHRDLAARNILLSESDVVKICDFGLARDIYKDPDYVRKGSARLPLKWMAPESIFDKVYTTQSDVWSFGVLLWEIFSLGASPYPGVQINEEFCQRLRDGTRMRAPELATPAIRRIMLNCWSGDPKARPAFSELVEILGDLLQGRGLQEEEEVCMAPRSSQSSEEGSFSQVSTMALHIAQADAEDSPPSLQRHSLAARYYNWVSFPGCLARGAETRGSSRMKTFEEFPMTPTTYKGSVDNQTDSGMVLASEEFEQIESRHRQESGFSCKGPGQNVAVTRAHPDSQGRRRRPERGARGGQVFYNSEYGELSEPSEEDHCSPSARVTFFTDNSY

[10] = target: Tyrosine-protein kinase Lyn (Homo sapiens, UniProt P07948); format: functional;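 also: lyn as one member of a kinase panel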
[11] = target: Tyrosine-protein kinase Fyn (Homo sapiens, UniProt P06241); format: functional
[12] = target: Receptor-type tyrosine-protein kinase FLT3 (Homo sapiens, UniProt P36888); format: functional;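 also: FLT3 was tested as one member of a kinome-wide kinase panel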
[13] = target: Vascular endothelial growth factor receptor 1 (Homo sapiens, UniProt P17948); format: functional;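 also: measured within a kinome-wide profiling panel, FLT1 as the panel member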
[14] = target: Macrophage colony-stimulating factor 1 receptor (Homo sapiens, UniProt P07333); format: functional;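 also: value comes from the Navigating the Kinome screening panel, CSF1R member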
[15] = target: Vascular endothelial growth factor receptor 2 (Homo sapiens, UniProt P35968); format: functional
[16] = target: Tyrosine-protein kinase Lck (Homo sapiens, UniProt P06239); format: functional;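 also: lck was assayed as one member of a kinase panel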
[17] = target: Proto-oncogene tyrosine-protein kinase Src (Homo sapiens, UniProt P12931); format: functional;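 also: SRC entry within a kinome-wide kinase profiling panel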
[18] = target: Tyrosine-protein kinase ABL1 (Homo sapiens, UniProt P00519); format: functional
[19] = target: Tyrosine-protein kinase Blk (Homo sapiens, UniProt P51451); format: functional;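 also: obtained as one member of a kinome-wide kinase assay panel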
[20] = system: HEK293; assay: SAR Analysis of small molecule inhibitors of T-cell specific antigen receptor-induced NF-kB activation in a HEK-293T cell line using a luminescence assay. [Related pubchem assays (depositor defined):AID435003, AID435012, AID489026]; format: functional, cell-based; conditions: Homo sapiens
[21] = system: Jurkat; assay: SAR Analysis of small molecule inhibitors of T-cell specific antigen receptor-induced NF-kB activation in a Jurkat cell line using a luminescence assay. [Related pubchem assays (depositor defined):AID435003, AID435012, AID465]; format: functional, cell-based; conditions: Homo sapiens
[22] = system: HEK293; assay: cytotoxicity in HEK293T NF-kB-Luc cells, SAR follow-up, cytotoxicity control for NF-kB activator project, cell-based, resazurin fluorescence (AID 493251); format: functional; conditions: Homo sapiens
[23] = Vero cell cytotoxicity, cytotoxicity control for M. tuberculosis inhibitor project, purified and synthesized samples, set 3 (AID 504684); format: functional
[24] = Vero cell cytotoxicity, dose response, cytotoxicity control for M. tuberculosis growth inhibitor project, Vero cells, purified and synthesized compounds, set 4 (AID 504854); format: functional; conditions: Mycobacterium tuberculosis
[25] = THP-1 cell cytotoxicity, cytotoxicity control, set 4 (AID 504911); format: functional; conditions: Mycobacterium tuberculosis
[26] = THP-1 cell cytotoxicity, dose response, cytotoxicity control, set 3 (AID 504852); format: functional; conditions: Mycobacterium tuberculosis
[27] = target: Sphingosine 1-phosphate receptor 2 (Homo sapiens, UniProt O95136); assay: Late-stage fluorescence-based dose-response cell-based counterscreen assay to identify agonists of the Sphingosine 1-Phosphate Receptor 3 (S1P3): Sphingosine 1-Phosphate Receptor 2 (S1P2) agonist assay.; format: functional
Sphingosine 1-phosphate receptor 2, sequence (O95136 whole entry): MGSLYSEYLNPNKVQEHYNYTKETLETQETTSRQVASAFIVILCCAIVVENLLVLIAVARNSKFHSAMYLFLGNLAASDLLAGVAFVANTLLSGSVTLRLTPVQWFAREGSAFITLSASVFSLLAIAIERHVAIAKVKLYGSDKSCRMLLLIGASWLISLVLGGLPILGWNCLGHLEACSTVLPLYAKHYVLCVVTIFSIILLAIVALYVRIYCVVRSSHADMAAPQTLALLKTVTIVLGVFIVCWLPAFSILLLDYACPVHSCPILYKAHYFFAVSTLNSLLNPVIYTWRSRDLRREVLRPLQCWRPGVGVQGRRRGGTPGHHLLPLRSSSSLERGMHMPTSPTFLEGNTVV

[28] = target: Sphingosine 1-phosphate receptor 4 (Homo sapiens, UniProt O95977); assay: Late-stage fluorescence-based dose-response cell-based counterscreen assay to identify agonists of the Sphingosine 1-Phosphate Receptor 3 (S1P3): Sphingosine 1-Phosphate Receptor 4 (S1P4) agonist assay.; format: functional
Sphingosine 1-phosphate receptor 4, sequence (O95977 whole entry): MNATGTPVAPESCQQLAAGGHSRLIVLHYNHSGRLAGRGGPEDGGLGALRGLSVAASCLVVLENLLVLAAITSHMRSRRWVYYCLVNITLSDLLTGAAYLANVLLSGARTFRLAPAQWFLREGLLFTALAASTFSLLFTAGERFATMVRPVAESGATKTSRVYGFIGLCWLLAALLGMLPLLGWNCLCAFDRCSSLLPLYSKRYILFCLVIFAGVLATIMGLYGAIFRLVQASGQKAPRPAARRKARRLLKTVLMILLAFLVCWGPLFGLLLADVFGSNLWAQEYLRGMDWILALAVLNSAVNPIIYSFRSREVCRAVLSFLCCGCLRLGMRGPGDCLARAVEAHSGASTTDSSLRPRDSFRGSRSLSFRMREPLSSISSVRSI

[29] = target: T2, Potassium voltage-gated channel subfamily KQT member 4 (Homo sapiens, UniProt P56696); assay: KCNQ4 channel modulation, potentiation or inhibition, dose response, selectivity assay for KCNQ2 activator project, thallium flux, KCNQ4-expressing cells (AID 504416); format: functional, cell-based
T2 sequence (P56696 whole entry): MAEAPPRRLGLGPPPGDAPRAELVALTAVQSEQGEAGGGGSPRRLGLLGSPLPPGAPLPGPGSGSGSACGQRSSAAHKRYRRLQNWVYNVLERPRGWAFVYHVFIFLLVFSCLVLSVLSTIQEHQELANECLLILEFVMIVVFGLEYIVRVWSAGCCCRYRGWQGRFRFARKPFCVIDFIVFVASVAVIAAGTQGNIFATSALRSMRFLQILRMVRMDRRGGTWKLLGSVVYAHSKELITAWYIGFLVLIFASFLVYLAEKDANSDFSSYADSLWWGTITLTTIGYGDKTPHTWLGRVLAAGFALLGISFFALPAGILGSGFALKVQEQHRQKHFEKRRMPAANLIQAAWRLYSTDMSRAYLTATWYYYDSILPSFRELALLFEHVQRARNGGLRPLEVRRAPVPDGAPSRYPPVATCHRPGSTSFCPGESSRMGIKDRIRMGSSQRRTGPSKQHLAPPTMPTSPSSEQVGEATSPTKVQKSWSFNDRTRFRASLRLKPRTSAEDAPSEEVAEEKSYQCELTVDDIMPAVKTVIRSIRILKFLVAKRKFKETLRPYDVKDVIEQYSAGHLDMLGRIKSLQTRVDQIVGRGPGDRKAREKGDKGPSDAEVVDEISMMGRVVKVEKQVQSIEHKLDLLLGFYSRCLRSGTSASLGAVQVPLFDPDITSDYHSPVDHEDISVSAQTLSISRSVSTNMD

[30] = target: Potassium voltage-gated channel subfamily KQT member 2/member 3 (Rattus norvegicus, UniProt O88943+O88944); assay: Mode of action assay-Dose response assay for KCNQ2 activators in the KCNQ2/KCNQ3 co-expressing cells on automated patch clamp. [Related pubchem assays (depositor defined):AID2239, AID2258, AID2287]; format: functional
[31] = target: T2, Potassium voltage-gated channel subfamily KQT member 4; assay: human KCNQ4 channel current potentiation, dose response, selectivity assay for KCNQ2 activator project, automated patch clamp, CHO cells (AID 493043); format: functional, cell-based
[32] = target: Potassium voltage-gated channel subfamily KQT member 2 (Rattus norvegicus, UniProt O88943); assay: Mode of action assay-Dose response assay for compounds that activate KCNQ2 potassium channels on automated patch clamp. [Related pubchem assays (depositor defined):AID2239, AID2258, AID2287, AID493113]; format: functional
[33] = KCNQ1 channel current modulation by KCNQ2 openers, dose response, selectivity assay for KCNQ2 activator project, automated patch clamp, KCNQ1-CHO cells (AID 493044); format: functional, cell-based
[34] = KCNQ1/KCNE1 channel current potentiation, dose response, selectivity assay for KCNQ2 activator project, automated patch clamp, CHO cells (AID 493042); format: functional
[35] = system: HEK293; assay: HEK cell cytotoxicity by LDH release, dose response, cytotoxicity control for IDE activator project, fluorescence, HEK cells (AID 588440); format: functional, cell-based; conditions: Homo sapiens;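 also: cytotoxicity by LDH release measuring loss of membrane integrity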
[36] = target: T3, Insulin-degrading enzyme (Homo sapiens, UniProt P14735); assay: activators of endogenous IDE in HEK cells, dose response, cell-based, fluorescence polarization (AID 588439); format: functional
T3 sequence (P14735 whole entry, the tested form may be a part): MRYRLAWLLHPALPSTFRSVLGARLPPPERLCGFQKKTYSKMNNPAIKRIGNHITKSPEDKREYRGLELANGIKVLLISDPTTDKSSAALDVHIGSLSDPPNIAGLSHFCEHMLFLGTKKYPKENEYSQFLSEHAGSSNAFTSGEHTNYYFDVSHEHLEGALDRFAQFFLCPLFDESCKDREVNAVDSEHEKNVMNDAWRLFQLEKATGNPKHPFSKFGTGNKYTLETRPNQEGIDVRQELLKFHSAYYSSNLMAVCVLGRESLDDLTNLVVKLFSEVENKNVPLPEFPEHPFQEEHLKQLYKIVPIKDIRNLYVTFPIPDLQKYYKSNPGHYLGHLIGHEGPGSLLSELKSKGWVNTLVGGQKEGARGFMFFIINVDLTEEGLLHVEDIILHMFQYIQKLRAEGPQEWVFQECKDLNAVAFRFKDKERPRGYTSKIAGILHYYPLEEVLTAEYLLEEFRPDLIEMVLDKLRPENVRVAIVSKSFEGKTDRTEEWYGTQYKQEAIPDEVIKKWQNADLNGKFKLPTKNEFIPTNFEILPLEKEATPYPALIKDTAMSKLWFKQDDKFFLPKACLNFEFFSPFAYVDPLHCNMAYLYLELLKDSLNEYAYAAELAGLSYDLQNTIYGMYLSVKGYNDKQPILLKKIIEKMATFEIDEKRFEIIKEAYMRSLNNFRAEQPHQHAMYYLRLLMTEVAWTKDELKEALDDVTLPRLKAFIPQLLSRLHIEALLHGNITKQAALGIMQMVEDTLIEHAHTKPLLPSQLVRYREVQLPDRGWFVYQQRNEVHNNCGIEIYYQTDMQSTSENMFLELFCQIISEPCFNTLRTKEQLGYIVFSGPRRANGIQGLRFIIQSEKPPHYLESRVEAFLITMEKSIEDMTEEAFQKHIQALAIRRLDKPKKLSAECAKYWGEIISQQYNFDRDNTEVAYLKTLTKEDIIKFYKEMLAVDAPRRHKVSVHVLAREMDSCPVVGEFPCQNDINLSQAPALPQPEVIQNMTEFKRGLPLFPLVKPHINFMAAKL

[37] = target: T4, Carboxy-terminal domain RNA polymerase II polypeptide A small phosphatase 1 (Homo sapiens, UniProt Q9GZU7); assay: inhibitors of CTDSP1, concentration-response testing, biochemical assay, absorbance-based, actives from ultra-high-throughput screening (AID 540297); format: functional
T4 sequence (Q9GZU7 whole entry): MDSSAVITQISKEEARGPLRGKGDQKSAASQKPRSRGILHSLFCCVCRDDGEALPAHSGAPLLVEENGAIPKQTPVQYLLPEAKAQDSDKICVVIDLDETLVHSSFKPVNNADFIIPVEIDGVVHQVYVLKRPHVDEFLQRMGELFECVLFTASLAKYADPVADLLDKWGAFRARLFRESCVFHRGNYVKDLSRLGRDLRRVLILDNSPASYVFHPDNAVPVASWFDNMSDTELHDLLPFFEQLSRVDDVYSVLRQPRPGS

[38] = target: T3, Insulin-degrading enzyme; assay: activators of recombinant IDE enzyme, dose response, counter-screen for IDE activator project, biochemical, fluorescence polarization (AID 588681)
[39] = system: HEK293; assay: optical interference in Abeta FP readout, dose response, artefact control for IDE activator project, biochemical, fluorescence polarization (AID 588442); format: functional, cell-based; conditions: Homo sapiens
[40] = target: Protein disulfide-isomerase (Homo sapiens, UniProt P07237); assay: PDI inhibitors, insulin aggregation turbidity, dose response, biochemical, absorbance, cherry-picked samples (AID 602350); format: functional
[41] = target: Dual specificity tyrosine-phosphorylation-regulated kinase 1A (Rattus norvegicus, UniProt Q63470); format: biochemical, Homo sapiens

## Cc1ccc(C(=O)N[C@@H](C)CN2CCC(n3c(=O)[nH]c4c(F)cccc43)CC2)cc1
[1]
  IC50: 20 µM (active)
[2]
  IC50: 0.222 µM (active)

## COc1ccc(CN2CCc3c([nH]c4ccccc34)C2)c(OC)c1C
[3]
  AC50: 1.68 µM (active)
[4]
  EC50: 8.4 µM (active)
[5]
  EC50: > 30.8 µM (inactive)
[6]
  EC50: 74.3 µM (inactive)
[7]
  EC50: 47.6 µM (inactive)

## Nc1n[nH]c2cccc(-c3ccc(NC(=O)Nc4cccc(C(F)(F)F)c4)c(F)c3)c12
[8]
  Ki: 0.00251 µM (active)
[9]
  Ki: 0.00316 µM (active)
[10]
  Ki: 0.0398 µM (active)
[11]
  Ki: 0.1 µM (active)
[12]
  Ki: 0.00316 µM (active)
[13]
  Ki: 0.000316 µM (active)
[14]
  Ki: 0.00316 µM (active)
[15]
  Ki: 0.000794 µM (active)
[16]
  Ki: 0.2 µM (active)
[17]
  Ki: 0.158 µM (active)
[18]
  Ki: 0.316 µM (active)
[19]
  Ki: 0.251 µM (active)

## COc1ccc(C(NC(=O)c2ccccc2)c2ccc3cccnc3c2O)cc1 (stereo unspecified)
[20]
  IC50: 23.2 µM (inactive)
[21]
  IC50: 2.67 µM (active)
[22]
  IC50: 6.26 µM (active)

## O=C(CSc1nc(O)c2ccccc2n1)NCc1ccc(Cl)cc1
[23]
  CC50: > 100 µM (active)
[24]
  CC50: > 100 µM (active)
[25]
  CC50: > 100 µM (active)
[26]
  CC50: > 100 µM (active)

## CC1CCCCC1N(C(=O)c1cc(C2CC2)on1)C1CCCCC1C (stereo unspecified)
[27]
  EC50: > 50 µM (inactive)
[28]
  EC50: > 50 µM (inactive)

## Cc1ccc(C)c(NC(=O)C2CC3CCC2C3)c1 (stereo unspecified)
[29]
  EC50: 2.64 µM (active)
[30]
  EC50: 0.396 µM (active)
[31]
  EC50: 1.63 µM (active)
[32]
  EC50: 0.402 µM (active)
[33]
  EC50: 5.03 µM (active)
[34]
  EC50: 2.68 µM (active)

## O=C(N/N=C/c1cn(-c2ccccc2)nc1-c1ccc2c(c1)OCCO2)c1ccncc1
[35]
  IC50: 29.2 µM (inactive)
[36]
  EC50: > 54.7 µM (inactive)
[37]
  IC50: 6.51 µM (active)
[38]
  EC50: > 54.7 µM (inactive)
[39]
  EC50: > 54.7 µM (inactive)

## COc1cc(-c2oc3cc(O)cc(O)c3c(=O)c2O[C@@H]2O[C@H](COC3O[C@@H](C)[C@H](O)[C@@H](O)[C@H]3O)[C@@H](O)[C@H](O)[C@H]2O)ccc1O (stereo partly specified)
[40]
  AC50: 7.96 µM (active)
[41]
  AC50: 4.62 µM (active)
